Test results taken from patent publication US7544773B2 (priority 2003, dated 2009).

Target: Dr hemagglutinin (Escherichia coli, UniProt P24093)
Assay type: cell-based, E. coli

Sequence of Dr hemagglutinin (P24093 22-160): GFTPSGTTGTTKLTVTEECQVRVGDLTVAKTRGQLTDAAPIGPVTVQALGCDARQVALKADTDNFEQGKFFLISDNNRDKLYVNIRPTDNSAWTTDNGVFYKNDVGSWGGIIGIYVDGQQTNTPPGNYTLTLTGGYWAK

TTGTTKL
polymerisation of Dr hemagglutinin judged by hemaglutination assay: completely abolished
